Values of other authors as cited in patent US20230287067A1, “HUMAN I[…] OF HEMO AND HHLA2 HUMAN ENDOGENOUS RETROVIRUSES (HERVS)” (priority 2020, published 2023).

Columns and labels:
[1] = system: HLA-A24; details: known property of control peptide
[2] = system: HLA-A2; details: known property of control peptide

Sequence	binding to HLA-A24 [1]	binding to HLA-A2 [2]
SYLIRALTL [peptide derived from influenza]	binds strongly	not to HLA-A2
WLLPGTSTV [agonist peptide derived from the tumor-associated antigen Brachyury]	–	bind strongly
